Experimental data taken from patent US11427544B2, “Histone deacetylase 6 inhibitors and use thereof” (TAIPEI MEDICAL UNIVERSITY, priority 2016, dated 2022).
pIC50: −log10 of the molar value.

Legend:
HDAC1 = molecular target: T1, HDAC1 (Homo sapiens, UniProt Q13547); assay: Fluorogenic HDAC assay, HDAC1; assay type: biochemical; settings: recombinant HDAC1; read-out: Enzyme IC50 HDAC1
T1 construct: purchased BPS Bioscience Corp
From the text: Of note, there are eighteen human HDACs. Eleven of them, designated as HDAC1-11, are zinc-dependent. Seven of them, designated as Sirt1-7, are NAD+-dependent.
Fluorogenic HDAC assay kits were used to assess the ability of HDAC inhibitors to inhibit deacetylation of lysine residues on a substrate by recombinant proteins HDAC1, 3, 4, 5, 6, 7, 8, 9 and Sirt1 according to the manufacturer's instructions (BPS Bioscience Corp., San Diego, Calif., USA).

[1] = test system: Caspase-3, Caspase-8, and Caspase-9 cleavage in RPMI8226 and NCI-H929; assay: Cleavage of Caspase-3, -8 and -9 in multiple myeloma cells, combined with bortezomib; assay type: cell-based, human
Method: A study was conducted to evaluate the effect of a compound of Formula (I) combined with bortezomib in increasing cleavage of Caspase-3, Caspase-8, and Caspase-9 in multiple myeloma cells.
Cells (1×10^6) were incubated for 10 minutes at 4° C. in a lysis buffer solution in a culture vessel, and then scraped off the culture vessel, incubated on ice for another 10 minutes, and centrifuged at 17,000×g for 30 minutes at 4° C. Protein samples ([…]) were electrophoresed on SDS gels and transferred onto a nitrocellulose membrane, which was blocked by incubation with 5% fat-free milk in phosphate-buffered saline (PBS) for 30 minutes at room temperature. Immunoblotting was performed by overnight incubation at 4° C. with primary antibodies in PBS, followed by incubation for 1 hour at room temperature with horseradish peroxidase (HRP)-conjugated secondary antibodies, then bound antibodies were measured using enhanced chemiluminescence (ECL) reagent (Advansta Corp., Menlo Park, Calif., USA) and exposure to photographic film.
The study was performed according to the protocol reported in Yang et al., Journal of Molecular Medicine, 2014, November; 92(11):1147-1158.

[2] = test system: APP in pCAX APP 695 plasmid-transfected Neuro 2a cells; assay: Amyloid precursor protein (APP) levels, Western blot; assay type: cell-based; settings: pCAX APP 695 transfected neuro 2a cells; 0.1-10 μM, 24 hours
Method: A study was conducted to evaluate the effect of compounds of Formula (I) in amyloid precursor protein (APP) levels and Aβ42 production.
Neuro 2a cells (1×10^6) in 6-well plates were transfected with pCAX APP 695 plasmid for 24 hours, then incubated for another 24 hours with Compound 12, Compound 28, or tubasatin A (0.1-10 μM). Cells were then harvested and cell lysates were prepared for Western blot analysis of the APP proteins.

T1 sequence (Q13547 whole entry): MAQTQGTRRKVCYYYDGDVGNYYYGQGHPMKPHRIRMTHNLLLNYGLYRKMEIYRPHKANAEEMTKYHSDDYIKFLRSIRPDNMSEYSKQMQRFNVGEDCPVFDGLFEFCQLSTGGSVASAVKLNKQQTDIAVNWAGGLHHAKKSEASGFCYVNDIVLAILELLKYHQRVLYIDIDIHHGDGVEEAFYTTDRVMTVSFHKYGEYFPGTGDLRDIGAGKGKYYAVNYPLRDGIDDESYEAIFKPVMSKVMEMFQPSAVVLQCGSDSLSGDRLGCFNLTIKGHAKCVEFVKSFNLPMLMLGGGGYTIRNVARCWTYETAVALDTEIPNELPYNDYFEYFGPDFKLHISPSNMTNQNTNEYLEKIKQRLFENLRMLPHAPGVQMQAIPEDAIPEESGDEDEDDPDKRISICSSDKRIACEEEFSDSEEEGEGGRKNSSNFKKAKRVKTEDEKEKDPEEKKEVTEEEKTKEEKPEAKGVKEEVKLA

## O=C(NO)c1ccc(CNc2cccc3cccnc23)cc1 [Compound 28, N-hydroxy-4-((quinolin-8-ylamino)methyl)benzamide]
HDAC1
  pIC50: 5.17
[1]
  cleavage of Caspase-3, Caspase-8, and Caspase-9: increased cleavage of Caspase-3, Caspase-8, and Caspase-9
[2]
  APP expression: markedly reduced the APP expression
